Results as given in ChEMBL document CHEMBL3804784, “Sulfatase inhibitors for recidivist breast cancer treatment: A chemical review” (Eur J Med Chem, 2016).

Columns and labels:
Steryl-sulfatase [1] = target: T1, Steryl-sulfatase (Homo sapiens, UniProt P08842); assay: Reversible inhibition of recombinant human estrone sulfatase using 4-methylumbelliferyl sulfate as substrate by Hanes plot analysis
T1 sequence (P08842 whole entry): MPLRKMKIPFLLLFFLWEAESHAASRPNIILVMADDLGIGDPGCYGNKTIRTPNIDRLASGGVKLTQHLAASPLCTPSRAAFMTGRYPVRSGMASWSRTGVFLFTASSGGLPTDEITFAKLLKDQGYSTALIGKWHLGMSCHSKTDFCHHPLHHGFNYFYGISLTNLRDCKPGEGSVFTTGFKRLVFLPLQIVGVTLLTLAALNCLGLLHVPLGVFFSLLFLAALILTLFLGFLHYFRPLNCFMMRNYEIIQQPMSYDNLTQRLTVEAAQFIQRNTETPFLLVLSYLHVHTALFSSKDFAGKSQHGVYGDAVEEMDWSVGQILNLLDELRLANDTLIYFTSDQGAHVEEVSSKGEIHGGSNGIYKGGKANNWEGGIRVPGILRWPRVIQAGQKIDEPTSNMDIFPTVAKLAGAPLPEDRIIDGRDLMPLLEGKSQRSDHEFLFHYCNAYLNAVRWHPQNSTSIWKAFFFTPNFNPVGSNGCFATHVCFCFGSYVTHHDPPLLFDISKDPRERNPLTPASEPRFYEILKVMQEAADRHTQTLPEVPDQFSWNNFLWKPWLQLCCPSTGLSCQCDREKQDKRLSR

Steryl-sulfatase [2] = target: T1, Steryl-sulfatase; assay: Inhibition of recombinant human estrone sulfatase expressed in CHO cells using 4-methylumbelliferyl sulfate as substrate by Hanes plot analysis; assay type: cell-based

SMILES: O=C(O)c1ccc2sc(C34CC5CC(CC(C5)C3)C4)cc(=O)c2c1
- Ki (Steryl-sulfatase [1]): 500 nM

SMILES: O=C(NN1[C@@H]2CC[C@H]1CC(C(=O)OCc1ccccc1)C2)NS(=O)(=O)c1ccc(Cl)cc1 (some centres not stated)
- Ki (Steryl-sulfatase [2]): 890 nM
